24 compounds from patent US7772246B2 (Pfizer Inc., priority 2007, dated 2010) can be followed below.

Assay [1] has as its target T1, b-Raf (Homo sapiens, UniProt P15056).
T1 construct: Full-length wild type b-Raf is expressed in recombinant form and purified from bacterial or insect cells; made in house; host or cells: bacterial or insect cells
The assay can be described thus: Raf biochemical assay (in vitro kinase assay, 32-P transfer from ATP to Mek1). As to conditions: full-length wild type b-Raf, Mek1 substrate; for inhibition at 1 µM: @ 1 μM compound, read-out: b-Raf % inhib @ 1 μM; for Ki: 25 μM ATP. The protocol:
Compounds of the present invention were evaluated for potency against b-Raf using an in vitro kinase assay. Raf kinase activity is measured in vitro by determining transfer of radiolabeled 32-P phosphate from ATP to the specific Raf substrate Mek1. Full-length wild type b-Raf is expressed in recombinant form and purified from bacterial or insect cells. Recombinant Mek1 is purified from E. coli bacterial cells. In one assay format (designated G1), the full-length wild type Mek1 is used as the b-Raf substrate. In a second assay format (designated G2), the full-length K97R Mek1 mutant is used as the b-Raf substrate.
In vitro kinase assays are performed in solution containing the following; 50 mM Hepes (pH 7.4), 5 nM b-Raf, 0.8 μM Mek1, 10 mM MgCl2, 25 μM ATP, 0.002% (v/v) Tween-20, 5 μg/mL leupeptin, 1.2 mM DTT, 2% (v/v) DMSO, 0.2-1.0 μCi [γ-^32P]ATP per well.
The assays are performed in wells of a 96 well polypropylene round bottom plate, each well containing 43.5 μL assay mix and 1.5 μL inhibitor compound or DMSO vehicle. 15 μL of b-Raf mix is added and the plate is shaken on a plate shaker and preincubated for 10 minutes at ambient temperature. The reaction is started by addition of 15 μL ATP mix and shaking. The reaction is terminated after 40 minutes by addition of 25 μL 0.5 M EDTA (pH 7.4).
60 μL of the stopped reaction is transferred to a well of a 96-well nylon 66 Biodyne A membrane Silent Screen filter plate (Nalge/Nunc: 256081). The wells are filtered and washed five times with 0.85% phosphoric acid. The filter is placed in a tray with about 50 mL 0.85% phosphoric acid and gently rotated for 10 minutes on an orbital shaker. The procedure is repeated once with fresh 0.85% phosphoric acid. Five samples of 0.5 μL of ATP mix are also spotted onto filter paper for calculation of specific activity. The filters are air dried for one hour and sandwiched between cellophane wrap on an Amersham Biosciences Storage Phosphor Screen and developed at least over night. The image is read using a Molecular Dynamics Storm 840 phosphoimager. Volumes of spots are calculated using ImageQuant5.1.
Raf kinase activity is calculated from the specific activity of [32-P] ATP, 32-P incorporation into Mek1, and the concentration of b-Raf.

The target in assay [2] is T2, b-Raf (Homo sapiens, UniProt P15056, V600E).
T2 construct: endogenous in cells; host or cells: A2058 human melanoma cells
T2 sequence (P15056 whole entry V600E): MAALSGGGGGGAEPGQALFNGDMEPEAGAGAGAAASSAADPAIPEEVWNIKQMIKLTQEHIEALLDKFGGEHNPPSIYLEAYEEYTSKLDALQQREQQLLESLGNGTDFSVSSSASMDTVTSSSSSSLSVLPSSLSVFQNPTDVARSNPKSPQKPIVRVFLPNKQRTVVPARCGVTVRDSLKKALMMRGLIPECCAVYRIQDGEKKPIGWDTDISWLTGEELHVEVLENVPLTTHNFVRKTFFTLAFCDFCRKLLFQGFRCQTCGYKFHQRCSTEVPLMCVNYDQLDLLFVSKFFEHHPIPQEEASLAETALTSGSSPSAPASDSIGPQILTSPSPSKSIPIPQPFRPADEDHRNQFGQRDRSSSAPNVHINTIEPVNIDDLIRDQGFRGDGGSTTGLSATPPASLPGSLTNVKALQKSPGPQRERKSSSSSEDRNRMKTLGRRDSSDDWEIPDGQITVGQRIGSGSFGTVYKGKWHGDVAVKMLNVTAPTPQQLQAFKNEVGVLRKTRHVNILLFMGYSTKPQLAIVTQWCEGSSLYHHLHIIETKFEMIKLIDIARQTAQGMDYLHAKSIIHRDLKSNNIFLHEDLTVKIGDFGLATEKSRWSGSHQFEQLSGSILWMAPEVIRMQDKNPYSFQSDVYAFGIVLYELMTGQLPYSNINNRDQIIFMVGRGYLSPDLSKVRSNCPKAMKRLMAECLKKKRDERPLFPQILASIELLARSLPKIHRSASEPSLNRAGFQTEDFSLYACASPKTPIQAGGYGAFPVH
The assay can be described thus: Raf cellular assay (phospho-Mek1/2 ELISA in A2058 cells). It counts as cell-based. To be noted: human melanoma A2058 cells (b-Raf mutation), Mek1/2 Ser217/221 phosphorylation, 1 hour incubation, read-out: pMEK IC50. The procedure, abridged: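 A2058 melanoma cells (B-Raf mutant), seeded overnight in 10% FBS DMEM, were exposed to compounds (11-point 1:3 series, duplicate) for 1 h at 37 °C. Lysates were captured on anti-Mek1-coated plates and Mek1/2 Ser217/221 phosphorylation was read by anti-phospho-Mek1/2 ELISA, HRP/TMB, 450 nm.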

Molecules are shown by their SMILES. Where two headings read alike, the source gives them in different places.

The Ki is the dissociation constant of the complex between target and ligand, obtained from inhibition or displacement. Low readings indicate tighter binding, high ones weaker binding. A word on the IC50: it is the concentration at which inhibition is half-maximal.

T1 sequence (P15056 whole entry): as the sequence (P15056 whole entry V600E) above, with E600V counted along it

For `CC(CO)Nc1nccc(-c2cn(C(C)C)nc2-c2cnc3[nH]ccc3c2)n1` (stereo in doubt) [Example D-9, (2R)-2-({4-[1-isopropyl-3-(1H-pyrrolo[2,3-b]pyridin-5-yl)-1H-pyrazol-4-yl]pyrimidin-2-yl}amino)propan-1-ol], at b-Raf [1], the inhibition at 1 µM is 100% and the Ki came to 1.6 nM. In addition, the half-maximal inhibitory concentration (IC50) on b-Raf [2] (Table 2) is 918 nM.

For the compound `CC(C)n1cc(-c2ccnc(NC[C@H](C)O)n2)c(-c2cnc3[nH]ccc3c2)n1` [Example B-1, (2S)-1-(4-(1-isopropyl-3-(1H-pyrrolo[2,3-b]pyridin-5-yl)-1H-pyrazol-4-yl)pyrimidin-2-ylamino)propan-2-ol], on b-Raf [1], the inhibition at 1 µM came out at 102% and the Ki came to 0.5 nM. Moreover, on b-Raf [2] (Table 2), the IC50 was 154 nM.

Consider `CNc1ccc(-c2nn(C(C)C)cc2-c2ccnc(NC[C@H](C)O)n2)cn1` [Example B-2, (2S)-1-(4-(1-isopropyl-3-(6-(methylamino)pyridin-3-yl)-1H-pyrazol-4-yl)pyrimidin-2-ylamino)propan-2-ol], for which, at b-Raf [1], the inhibition at 1 µM came out at 97% and the affinity corresponds to a Ki of 12 nM. In addition, on b-Raf [2] (Table 2), the concentration for half-maximal inhibition (IC50) was determined as 8670 nM.

With `Cc1cc(-c2nn(C(C)C)cc2-c2ccnc(NC[C@H](C)O)n2)cnc1N` [Example B-3, (2S)-1-(4-(3-(6-amino-5-methylpyridin-3-yl)-1-isopropyl-1H-pyrazol-4-yl)pyrimidin-2-ylamino)propan-2-ol], on b-Raf [1], the inhibition at 1 µM stood at 98% and the inhibitory constant (Ki) stood at 11 nM. On b-Raf [2] (Table 2), the IC50 stood at 815 nM.

Take `CNc1ncc(-c2nn(C(C)C)cc2-c2ccnc(NC[C@H](C)O)n2)cc1C` [Example B-4, (2S)-1-(4-(1-isopropyl-3-(5-methyl-6-(methylamino)pyridin-3-yl)-1H-pyrazol-4-yl)pyrimidin-2-ylamino)propan-2-ol]: on b-Raf [1], the inhibition at 1 µM came out at 74% and the Ki came out at 272 nM. In addition, the IC50 on b-Raf [2] (Table 2) amounted to 3370 nM.

At b-Raf [1], `Cc1c[nH]c2ncc(-c3nn(C(C)C)cc3-c3ccnc(NC[C@H](C)O)n3)cc12` [Example B-5, (2S)-1-(4-(1-isopropyl-3-(3-methyl-1H-pyrrolo[2,3-b]pyridin-5-yl)-1H-pyrazol-4-yl)pyrimidin-2-ylamino)propan-2-ol] came in with a Ki of 0.2 nM. Further, the IC50 at b-Raf [2] (Table 2) stood at 7 nM.

Consider `Cc1[nH]c2ncc(-c3nn(C(C)C)cc3-c3ccnc(NC[C@H](C)O)n3)cc2c1C` [Example B-6, (2S)-1-(4-(3-(2,3-dimethyl-1H-pyrrolo[2,3-b]pyridin-5-yl)-1-isopropyl-1H-pyrazol-4-yl)pyrimidin-2-ylamino)propan-2-ol], for which, on b-Raf [1], the affinity, expressed as Ki, was 1.5 nM. In addition, at b-Raf [2] (Table 2), the IC50 turned out to be 44 nM.

Consider `CC(C)(CO)n1cc(-c2ccnc(N)n2)c(-c2cnc3[nH]cc(Cl)c3c2)n1` [Example E-6, 2-[4-(2-amino-pyrimidin-4-yl)-3-(3-chloro-1H-pyrrolo[2,3-b]pyridin-5-yl)-1H-pyrazol-1-yl]-2-methylpropan-1-ol], for which, at b-Raf [2] (Table 3), the IC50 was 8.98 nM.

Consider `CC(C)n1cc(-c2ccncn2)c(-c2cnc3[nH]cc(Cl)c3c2)n1` [Example F-1, 3-chloro-5-(1-isopropyl-4-(pyrimidin-4-yl)-1H-pyrazol-3-yl)-1H-pyrrolo[2,3-b]pyridine], for which the IC50 on b-Raf [2] (Table 3) came out at 49.9 nM.

For `CN1CCC(n2cc(-c3ccncn3)c(-c3cnc4[nH]cc(Cl)c4c3)n2)CC1` [Example F-2, 3-chloro-5-[1-(1-methylpiperidin-4-yl)-4-pyrimidin-4-yl-1H-pyrazol-3-yl]-1H-pyrrolo[2,3-b]pyridine], on b-Raf [2] (Table 3), the IC50 is 196 nM.

On to `COc1cc(-c2nn(C(C)(C)C)cc2-c2ccncn2)cnc1N` [Example F-3, 5-(1-tert-butyl-4-pyrimidin-4-yl-1H-pyrazol-3-yl)-3-methoxypyridin-2-amine], for which the IC50 at b-Raf [2] (Table 3) was 55.4 nM.

With `C[C@H](O)CNc1nccc(-c2cn(C3CCOC3)nc2-c2cnc3[nH]cc(Cl)c3c2)n1` (stereo partly drawn) [Example G-1, (2S)-1-(4-(3-(3-chloro-1H-pyrrolo[2,3-b]pyridin-5-yl)-1-(tetrahydrofuran-3-yl)-1H-pyrazol-4-yl)pyrimidin-2-ylamino)propan-2-ol], the IC50 on b-Raf [2] (Table 3) stood at 16.3 nM.

As to `COc1cc(-c2nn(C)cc2-c2ccnc(NCCC#N)n2)cnc1N` [Example G-2, 3-({4-[3-(6-amino-5-methoxypyridin-3-yl)-1-methyl-1H-pyrazol-4-yl]pyrimidin-2-yl}amino)propanenitrile], the IC50 on b-Raf [2] (Table 3) turned out to be 5.24 nM.

With `Cc1n[nH]c2ncc(-c3nn(CC(F)F)cc3-c3ccnc(NCC(F)F)n3)cc12` [Example G-3, N-(2,2-difluoroethyl)-4-[1-(2,2-difluoroethyl)-3-(3-methyl-1H-pyrazolo[3,4-b]pyridin-5-yl)-1H-pyrazol-4-yl]pyrimidin-2-amine], the 50% inhibitory concentration (IC50) at b-Raf [2] (Table 3) was 22.9 nM.

In the case of `Cc1n[nH]c2ncc(-c3nn(CC(F)F)cc3-c3ccnc(NC4CCOC4)n3)cc12` (stereo not drawn) [Example G-4, 4-[1-(2,2-difluoroethyl)-3-(3-methyl-1H-pyrazolo[3,4-b]pyridin-5-yl)-1H-pyrazol-4-yl]-N-(tetrahydrofuran-3-yl)pyrimidin-2-amine], the IC50 on b-Raf [2] (Table 3) was determined as 774 nM.

For the compound `CC(C)(C#N)n1cc(-c2ccnc(NCCO)n2)c(-c2cnc3[nH]cc(Cl)c3c2)n1` [Example G-5, 2-[3-(3-chloro-1H-pyrollo[2,3-b]pyridin-5-yl)-4-{2-[(2-hydroxyethyl)amino]pyrimidin-4-yl}-1H-pyrazol-1-yl]-2-methylpropanenitrile], the IC50 on b-Raf [2] (Table 3) stood at 19.9 nM.

`CC(C)(C#N)n1cc(-c2ccnc(N)n2)c(-c2cnc3[nH]cc(Cl)c3c2)n1` [Example G-6, 2-[4-(2-aminopyrimidin-4-yl)-3-(3-chloro-1H-pyrrolo[2,3-b]pyridin-5-yl)-1H-pyrazol-1-yl]-2-methylpropanenitrile]: the IC50 on b-Raf [2] (Table 3) was 17.3 nM.

Regarding `Cc1cc(-c2nn(CC(F)F)cc2-c2ccnc(NCCC#N)n2)cnc1N` [Example G-7, 3-(4-(3-(6-amino-5-methylpyridin-3-yl)-1-(2,2-difluoroethyl)-1H-pyrazol-4-yl)pyrimidin-2-ylamino)-propanenitrile], the IC50 on b-Raf [2] (Table 3) is 28.5 nM.

As to `CC(C)n1cc(-c2ccnc(N)c2)c(-c2cnc3[nH]cc(Cl)c3c2)n1` [Example H-1, 4-(3-(3-chloro-1H-pyrrolo[2,3-b]pyridin-5-yl)-1-isopropyl-1H-pyrazol-4-yl)pyridin-2-amine], the IC50 at b-Raf [2] (Table 3) turned out to be 26 nM.

Consider `CC(C)n1cc(-c2ccnc(N)c2)c(-c2cnc3[nH]ccc3c2)n1` [Example H-2, 4-(1-isopropyl-3-(1H-pyrrolo[2,3-b]pyridin-5-yl)-1H-pyrazol-4-yl)pyridin-2-amine], for which the half-inhibitory concentration (IC50) at b-Raf [2] (Table 3) stood at 1020 nM.

Consider `CC(C)n1cc(-c2ccnc3[nH]ccc23)c(-c2cnc3[nH]ccc3c2)n1` [Example H-3, 4-(1-isopropyl-3-(1H-pyrrolo[2,3-b]pyridin-5-yl)-1H-pyrazol-4-yl)-1H-pyrrolo[2,3-b]pyridine], for which the IC50 on b-Raf [2] (Table 3) worked out at 427 nM.

`CC(C)n1cc(-c2ccnc3[nH]ccc23)c(-c2cnc3[nH]cc(Cl)c3c2)n1` [Example H-4, 3-chloro-5-(1-isopropyl-4-(1H-pyrrolo[2,3-b]pyridin-4-yl)-1H-pyrazol-3-yl)-1H-pyrrolo[2,3-b]pyridine]: the IC50 on b-Raf [2] (Table 3) was 66.3 nM.

In the case of `COc1nc(-c2nn(CC(F)F)cc2-c2ccnc(NC[C@H](C)O)n2)cnc1N` [Example I-1, (2S)-1-({4-[3-(5-amino-6-methoxypyrazin-2-yl)-1-(2,2-difluoroethyl)-1H-pyrazol-4-yl]pyrimidin-2-yl}amino)propan-2-ol], the IC50 at b-Raf [2] (Table 3) turned out to be 2790 nM.

With `CC(C)n1cc(-c2ccnc(NC[C@H](C)O)n2)c(-c2cnc3[nH]cc(Cl)c3n2)n1` [Example I-2, (2S)-1-({4-[3-(7-chloro-5H-pyrrolo[2,3-b]pyrazin-2-yl)-1-isopropyl-1H-pyrazol-4-yl]pyrimidin-2-yl}amino)propan-2-ol], on b-Raf [2] (Table 3), the IC50 came out at 20 nM.
